{
  "source": "ChEMBL document CHEMBL5370573",
  "about": "“Isolation of Hydrazide-alkenes with Different Amino Acid Origins from an Azoxy-alkene-Producing Mutant of Streptomyces rochei 7434AN4” (J Nat Prod, 2023)",
  "key": {"[1]": {"assay": "Inhibition of quorum sensing system in Chromobacterium violaceum CV026 assessed as reduction in violacein production at 1 mg/ml measured after 24 hrs relative to control"}, "[2]": {"assay": "Inhibition of quorum sensing system in Chromobacterium violaceum CV026 assessed as reduction in violacein production measured after 24 hrs"}},
  "data": [
    {"compound": "CCCC/C=C\\NN(C(C)=O)C(=O)C(C)CC", "note": "(stereo not drawn)", "values": [
      {"measurement": "inhibition", "setting": "[1]", "value": 40, "unit": "%"}
    ]},
    {"compound": "CCCC/C=C\\[N+]([O-])=N\\[C@H](C)[C@H](O)CO", "values": [
      {"measurement": "IC50", "setting": "[2]", "value": 750, "unit": "µg/mL"}
    ]},
    {"compound": "CCCC/C=C\\NN(C(C)=O)C(=O)C(C)C", "values": [
      {"measurement": "inhibition", "setting": "[1]", "value": 40, "unit": "%"}
    ]}
  ]
}
